The source of these data is patent US20080167314A1, “Condensed Imidazole Compound And Use Thereof” (priority 2004, published 2008).

In turn, `Cc1cc(-c2nc3cccnn3c2-c2ccnc(NC(=O)NC3CCC(O)CC3)c2)ccc1F` (centres unmarked) [Example 51-10, N-{4-[2-(4-fluoro-3-methylphenyl)imidazo[1,2-b]pyridazin-3-yl]pyridin-2-yl}-N′-(4-hydroxycyclohexyl)urea] showed a melting point of 218 to 220 °C.

On to `COc1ccc(CC(=O)Nc2cc(-c3c(-c4cccc(C)c4)nc4cccnn34)ccn2)cc1` [Example Compound 20-12, 2-(4-methoxyphenyl)-N-{4-[2-(3-methylphenyl)imidazo[1,2-b]pyridazin-3-yl]pyridin-2-yl}acetamide], for which the melting point is 213 to 214 °C.

In turn, `CCCC(=O)Nc1cc(-c2c(-c3ccc(F)c(C)c3)nc3cccnn23)ccn1` [Example 42-4, N-{4-[2-(4-fluoro-3-methylphenyl)imidazo[1,2-b]pyridazin-3-yl]pyridin-2-yl}butanamide] returned a melting point of 181 to 183 °C.

As for `COc1ccc2nc(-c3cccc(C)c3)c(-c3ccnc(NC4CCCCC4)c3)n2n1` [Example 9, N-Cyclohexyl-4-[6-methoxy-2-(3-methylphenyl)imidazo[1,2-b]pyridazin-3-yl]pyridin-2-amine], the melting point lay in the range of 188 to 189 °C.

Molecule `Cc1cc(-c2nc3cccnn3c2-c2ccnc(NC(=O)Nc3cccnc3)c2)ccc1F` [Example 51-7, N-{4-[2-(4-fluoro-3-methylphenyl)imidazo[1,2-b]pyridazin-3-yl]pyridin-2-yl}-N′-(pyridin-3-yl)urea] came in with a melting point of 233 to 234 °C.

`Cc1cc(-c2nc3cc(C(C)(C)C)cnn3c2-c2ccnc(N)c2)ccc1F` [Example Compound 37-3, 4-[7-tert-butyl-2-(4-fluoro-3-methylphenyl)imidazo[1,2-b]pyridazin-3-yl]-2-pyridylamine] came in with a melting point of 212 to 213 °C.

Take `Cc1cccc(-c2nc3cccnn3c2-c2ccnc(N[C@@H](C)c3ccccc3)c2)c1` [Example Compound 6-21, 4-[2-(3-methylphenyl)imidazo[1,2-b]pyridazin-3-yl]-N-[(1S)-1-phenylethyl]pyridin-2-amine]: the melting point was 154 to 155 °C.

With `Cc1cc(-c2nc3cccnn3c2-c2ccnc(NC(=O)c3ccc(OC(F)(F)F)cc3)c2)ccc1F` [Example 42-14, N-{4-[2-(4-fluoro-3-methylphenyl)imidazo[1,2-b]pyridazin-3-yl]pyridin-2-yl}-4-(trifluoromethoxy)benzamide], the melting point is 225 to 226 °C.

For `Cc1cc(-c2nc3cccnn3c2-c2ccnc(NC(=O)NC3CCCCC3)c2)ccc1F` [Example Compound 28-6, N-cyclohexyl-N′-{4-[2-(4-fluoro-3-methylphenyl)imidazo[1,2-b]pyridazin-3-yl]pyridin-2-yl}urea], the melting point was in the range of 229 to 230 °C.

As for `Cc1cc(-c2nc3cccnn3c2-c2ccnc(NC(=O)NCC(C)O)c2)ccc1F` (centres unmarked) [Example 51-13, N-{4-[2-(4-fluoro-3-methylphenyl)imidazo[1,2-b]pyridazin-3-yl]pyridin-2-yl}-N′-(2-hydroxypropyl)urea], the melting point is 139 to 140 °C.

For the molecule `CNc1ccc2nc(-c3ccc(F)c(C)c3)c(-c3ccnc(NC(=O)c4ccc(OC)cc4)c3)n2n1` [Example 46, N-{4-[2-(4-Fluoro-3-methylphenyl)-6-(methylamino)imidazo[1,2-b]pyridazin-3-yl]pyridin-2-yl}-4-methoxybenzamide], the melting point was in the range of 178 to 180 °C.

Turning to `CCNC(=O)Nc1cc(-c2c(-c3ccc(F)c(C)c3)nc3ccc(NC)nn23)ccn1` [Example 48-5, N-ethyl-N′-{4-[2-(4-fluoro-3-methylphenyl)-6-(methylamino)imidazo[1,2-b]pyridazin-3-yl]pyridin-2-yl}urea], the melting point lay within 263 to 264 °C.

`CCN(CC)C(=O)Nc1cc(-c2c(-c3cccc(C)c3)nc3cccnn23)ccn1` [Example Compound 32-1, N,N-diethyl-N′-{4-[2-(3-methylphenyl)imidazo[1,2-b]pyridazin-3-yl]pyridin-2-yl}urea] came in with a melting point of 166 to 167 °C.

Take `Cc1cc(-c2nc3cccnn3c2-c2ccnc(NC(=O)N3CCOCC3)c2)ccc1F.Cl`: the melting point lay in the range of 164 to 166 °C.

`CCC(CC)NC(=O)Nc1cc(-c2c(-c3ccc(F)c(C)c3)nc3cccnn23)ccn1` [Example 51-4, N-(1-ethylpropyl)-N′-{4-[2-(4-fluoro-3-methylphenyl)imidazo[1,2-b]pyridazin-3-yl]pyridin-2-yl}urea] displayed a melting point of 187 to 188 °C.

In turn, `Cc1cccc(-c2nc3cccnn3c2-c2ccnc(NC(=O)c3ccccc3F)c2)c1` [Example Compound 20-5, 2-fluoro-N-{4-[2-(3-methylphenyl)imidazo[1,2-b]pyridazin-3-yl]pyridin-2-yl}benzamide] gave a melting point of 180 to 181 °C.

The molecule `Cc1cccc(-c2nc3cccnn3c2-c2ccnc(NCC3CCCO3)c2)c1` (centres unmarked) [Example Compound 6-16, 4-[2-(3-methylphenyl)imidazo[1,2-b]pyridazin-3-yl]-N-(tetrahydrofuran-2-ylmethyl)pyridin-2-amine] gave a melting point of 137 to 138 °C.

Regarding `Cc1cc(-c2nc3cccnn3c2-c2ccnc(NC(=O)CC(F)(F)F)c2)ccc1F` [Example 42-1, 3,3,3-trifluoro-N-{4-[2-(4-fluoro-3-methylphenyl)imidazo[1,2-b]pyridazin-3-yl]pyridin-2-yl}propanamide], the melting point was 220 to 221 °C.

Regarding `CCC(=O)N(C(=O)CC)c1cc(-c2c(-c3cccc(C)c3)nc3cccnn23)ccn1` [Example 22, N-{4-[2-(3-Methylphenyl)imidazo[1,2-b]pyridazin-3-yl]pyridin-2-yl}-N-propionylpropanamide], the melting point fell in the range of 210 to 211 °C.

For `Cc1cc(-c2nc3cc(C(C)(C)C)c(Cl)nn3c2-c2ccnc(N)c2)ccc1F` [Example Compound 36-2, 4-[7-tert-butyl-6-chloro-2-(4-fluoro-3-methylphenyl)imidazo[1,2-b]pyridazin-3-yl]-2-pyridylamine], the melting point lay in the range of 232 to 233 °C.

On to `Cc1cc(-c2nc3cc(C(C)(C)C)c(Cl)nn3c2-c2ccnc(NC(=O)c3ccc(F)cc3)c2)ccc1F` [Example 41-3, N-{4-[7-tert-butyl-6-chloro-2-(4-fluoro-3-methylphenyl)imidazo[1,2-b]pyridazin-3-yl]-2-pyridyl}-4-fluorobenzamide], for which the melting point lay in the range of 181 to 182 °C.

On to `CCNC(=O)Nc1cc(-c2c(-c3ccc(F)c(C)c3)nc3c(C)cc(Cl)nn23)ccn1` [Example 48-1, N-{4-[6-chloro-2-(4-fluoro-3-methylphenyl)-8-methylimidazo[1,2-b]pyridazin-3-yl]-2-pyridyl}-N′-ethylurea], for which the melting point is 229 to 230 °C.

On to `COc1ccc(C(=O)Nc2cc(-c3c(-c4cccc(C)c4)nc4cccnn34)ccn2)cc1` [Example compound 20-2, 4-methoxy-N-{4-[2-(3-methylphenyl)imidazo[1,2-b]pyridazin-3-yl]pyridin-2-yl}benzamide], for which the melting point is 177 to 178 °C.

For the molecule `Cc1cccc(-c2nc3cccnn3c2-c2ccnc(NCc3ccccc3)c2)c1` [Example Compound 6-23, N-benzyl-4-[2-(3-methylphenyl)imidazo[1,2-b]pyridazin-3-yl]pyridin-2-amine], the melting point was 193 to 194 °C.

Molecule `Cc1cc(-c2nc3cccnn3c2-c2ccnc(NC(=O)NCCCCO)c2)ccc1F.Cl` gave a melting point of 188 to 189 °C.

Regarding `CCC(=O)Nc1cc(-c2c(-c3ccc(F)c(C)c3)nc3cccnn23)ccn1` [Example Compound 21-18, N-{4-[2-(4-fluoro-3-methylphenyl)imidazo[1,2-b]pyridazin-3-yl]pyridin-2-yl}propanamide], the melting point fell in the range of 166 to 167 °C.

`Cc1cccc(-c2nc3ccc(Cl)nn3c2-c2ccnc(N)n2)c1` [Example 34, 4-[6-Chloro-2-(3-methylphenyl)imidazo[1,2-b]pyridazin-3-yl]-2-pyrimidinamine] showed a melting point of 237 to 238 °C.

`Cc1cc(-c2nc3cccnn3c2-c2ccnc(NC(=O)NC3CC3)c2)ccc1F` [Example 51-1, N-cyclopropyl-N′-{4-[2-(4-fluoro-3-methylphenyl)imidazo[1,2-b]pyridazin-3-yl]pyridin-2-yl}urea] had a melting point of 222 to 223 °C.

The molecule `Cc1cc(-c2nc3cccnn3c2-c2ccnc(NC(=O)c3ccsc3)c2)ccc1F` [Example 42-32, N-{4-[2-(4-fluoro-3-methylphenyl)imidazo[1,2-b]pyridazin-3-yl]pyridin-2-yl}thiophene-3-carboxamide] gave a melting point of 217 to 218 °C.

`Cc1cc(-c2nc3cccnn3c2-c2ccnc(NC(=O)c3cccc4ccccc34)c2)ccc1F` [Example 42-20, N-{4-[2-(4-fluoro-3-methylphenyl)imidazo[1,2-b]pyridazin-3-yl]pyridin-2-yl}-1-naphthamide] gave a melting point of 252 to 253 °C.

As for `COCCNc1cc(-c2c(-c3cccc(C)c3)nc3cccnn23)ccn1` [Example Compound 6-13, N-(2-methoxyethyl)-4-[2-(3-methylphenyl)imidazo[1,2-b]pyridazin-3-yl]pyridin-2-amine], the melting point was 99 to 100 °C.

In turn, `Cc1cc(-c2nc3cccnn3c2-c2ccnc(N3CCCNC3=O)c2)ccc1F` [Example 55, 1-{4-[2-(4-Fluoro-3-methylphenyl)imidazo[1,2-b]pyridazin-3-yl]pyridin-2-yl}tetrahydropyrimidine-2-(1H)-one] had a melting point of 213 to 215 °C.

Regarding `Cc1cccc(-c2nc3cccnn3c2-c2ccnc(NC(=O)NC(C)C)c2)c1` [Example Compound 27-6, N-isopropyl-N′-{4-[2-(3-methylphenyl)imidazo[1,2-b]pyridazin-3-yl]pyridin-2-yl}urea], the melting point fell in the range of 193 to 195 °C.

As to `Cc1ccc(Nc2cc(-c3c(-c4cccc(C)c4)nc4cccnn34)ccn2)cc1` [Example Compound 6-8, N-(4-methylphenyl)-4-[2-(3-methylphenyl)imidazo[1,2-b]pyridazin-3-yl]pyridin-2-amine], the melting point lay in the range of 213 to 214 °C.

In turn, `Cc1cc(-c2nc3c([S+](C)[O-])cc(Cl)nn3c2-c2ccnc(N)c2)ccc1F` (centres unmarked) [Example 57-2, 4-[6-chloro-2-(4-fluoro-3-methylphenyl)-8-(methylsulfinyl)imidazo[1,2-b]pyridazin-3-yl]-2-pyridylamine] came in with a melting point of 216 to 217 °C.
